Reference: patent US7517885B2, “Substituted [4-(4-phenyl-piperazin-1-yl)-cyclohexyl]-urea compounds” (Janssen Pharmaceutica N.V., priority 2005, dated 2009)

Key:
[1] = biological target: T1, α1b-AR (Homo sapiens, UniProt P35368); test: α1-Adrenergic Receptor Binding Assay (125I-HEAT radio-ligand), α1b subtype; settings: membranes of COS-7 cells transfected with α1b subtype; 125I-HEAT 50 pM; rt 1 hr
T1 construct: expressed in transfected cells; host or cells: COS-7 cells (membranes)
T1 sequence (P35368 1-520): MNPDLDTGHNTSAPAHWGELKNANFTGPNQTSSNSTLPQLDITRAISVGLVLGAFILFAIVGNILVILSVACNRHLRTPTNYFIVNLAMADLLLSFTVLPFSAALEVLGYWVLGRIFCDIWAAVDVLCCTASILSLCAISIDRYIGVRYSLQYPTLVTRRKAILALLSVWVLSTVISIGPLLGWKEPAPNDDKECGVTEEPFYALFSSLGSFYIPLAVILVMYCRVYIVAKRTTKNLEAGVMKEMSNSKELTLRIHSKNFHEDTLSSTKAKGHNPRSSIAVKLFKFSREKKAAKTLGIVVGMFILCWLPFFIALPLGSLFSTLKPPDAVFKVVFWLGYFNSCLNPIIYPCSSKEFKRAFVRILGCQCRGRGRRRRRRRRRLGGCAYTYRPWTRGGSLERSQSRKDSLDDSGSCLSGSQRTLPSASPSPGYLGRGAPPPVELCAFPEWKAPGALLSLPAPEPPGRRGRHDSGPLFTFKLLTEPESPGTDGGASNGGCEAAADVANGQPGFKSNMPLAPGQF
Description: (§1) α1-Adrenergic Receptor Binding Assay
(§2) Preparation of COS Cell Membranes
(§3) Membranes were prepared from COS-7 cells (African Green monkey kidney SV40-transformed cells) that had been transfected with one of the three α1-AR subtypes (Genbank accession number for the α1a subtype: AF013261; Genbank accession number for the α1b subtype: NM000679; Genbank accession number for the α1d subtype: NM000678) using the following method: COS cells from ten 100 mm tissue culture plates were scraped into a 5 mL volume of TE (a mixture of 50 mM Tris-HCl, 5 mM EDTA, pH 7.4). […] The disrupted cells were centrifuged at 1000×g min at 4° C. Supernatants were centrifuged at 34,500×g for 20 min at 4° C. The membrane pellets were suspended in a 2 mL volume of TNE (a mixture of 50 mM Tris-HCl, 5 mM EDTA and 150 mM NaCl at pH 7.4). An aliquot of the membrane suspension was stored at −70° C. until use. The protein concentration was determined using the BioRad “DC” protein assay kit following membrane solubilization with Triton X-100.
(§4) Radio-Ligand Binding Assay
(§5) Triplicate determinations of radio-ligand binding in the presence of increasing concentrations of testing compound were made. The reagents were added to 96-well polypropylene plate wells. […] The plate was incubated at rt for 1 hr. The contents of the wells were filtered through a glass filter (type C) (GF/C) membrane Unifilter plate (Packard Instruments) using the Packard Filtermate cell harvester. The filter plates were dried in a vacuum oven for 30 min at 40° C. 25 μL Microscint 20 liquid scintillation fluid (Packard Instruments) was added to each well. The radioactive content was analyzed in the TopCount microplate scintillation counter (Packard Instruments).

[2] = biological target: T2, α1a-AR (Homo sapiens, UniProt P35348); test: α1-Adrenergic Receptor Binding Assay (125I-HEAT radio-ligand), α1a subtype; settings: membranes of COS-7 cells transfected with α1a subtype; 125I-HEAT 50 pM; rt 1 hr
T2 construct: expressed in transfected cells; host or cells: COS-7 cells (membranes)
T2 sequence (P35348 1-455 isoform P35348-4): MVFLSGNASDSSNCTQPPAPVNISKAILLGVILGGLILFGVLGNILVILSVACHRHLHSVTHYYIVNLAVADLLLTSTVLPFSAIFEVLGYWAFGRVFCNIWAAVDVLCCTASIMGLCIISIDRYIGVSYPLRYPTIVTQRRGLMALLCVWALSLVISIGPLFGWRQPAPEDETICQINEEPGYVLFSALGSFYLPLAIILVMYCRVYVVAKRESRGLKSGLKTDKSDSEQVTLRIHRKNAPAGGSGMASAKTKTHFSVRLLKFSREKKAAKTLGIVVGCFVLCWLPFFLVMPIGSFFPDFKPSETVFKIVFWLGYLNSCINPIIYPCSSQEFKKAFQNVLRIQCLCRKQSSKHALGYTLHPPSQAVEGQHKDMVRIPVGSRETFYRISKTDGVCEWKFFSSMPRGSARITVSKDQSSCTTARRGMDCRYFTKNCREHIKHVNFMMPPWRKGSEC
Description: as §1, §2, §3, §4, §5

[3] = biological target: T3, α1d-AR (Homo sapiens, UniProt P25100); test: α1-Adrenergic Receptor Binding Assay (125I-HEAT radio-ligand), α1d subtype; settings: membranes of COS-7 cells transfected with α1d subtype; 125I-HEAT 50 pM; rt 1 hr
T3 construct: expressed in transfected cells; host or cells: COS-7 cells (membranes)
T3 sequence (P25100 1-572): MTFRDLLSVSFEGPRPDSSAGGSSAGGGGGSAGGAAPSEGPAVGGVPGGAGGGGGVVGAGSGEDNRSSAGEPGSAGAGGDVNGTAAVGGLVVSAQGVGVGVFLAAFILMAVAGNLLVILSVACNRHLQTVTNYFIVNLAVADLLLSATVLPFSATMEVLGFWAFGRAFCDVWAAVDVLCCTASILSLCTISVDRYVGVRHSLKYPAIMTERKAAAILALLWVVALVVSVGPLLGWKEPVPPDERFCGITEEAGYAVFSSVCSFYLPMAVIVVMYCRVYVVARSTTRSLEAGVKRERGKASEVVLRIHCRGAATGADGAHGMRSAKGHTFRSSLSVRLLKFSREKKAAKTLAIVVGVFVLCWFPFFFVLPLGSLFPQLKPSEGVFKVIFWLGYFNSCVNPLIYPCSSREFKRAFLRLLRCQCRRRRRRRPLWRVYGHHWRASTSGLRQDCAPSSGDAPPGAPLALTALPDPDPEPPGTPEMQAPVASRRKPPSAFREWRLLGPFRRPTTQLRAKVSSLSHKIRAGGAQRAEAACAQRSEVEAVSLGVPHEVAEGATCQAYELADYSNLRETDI
Description: as §1, §2, §3, §4, §5

Row | Structure (SMILES) | Ki [1] | Ki [2] | Ki [3]
1 | COc1ccccc1NC(=O)N[C@H]1CC[C@H](N2CCN(c3ccccc3OC(C)C)CC2)CC1 [Cpd 2, 1-{t-4-[4-(2-isopropoxy-phenyl)-piperazin-1-yl]-cyclohexyl}-r-3-(2-methoxy-phenyl)-urea] | 107 nM | 38 nM | –
2 | COc1ccc(NC(=O)N[C@H]2CC[C@@H](N3CCN(c4ccccc4OC(C)C)CC3)CC2)cc1Cl [Cpd 34, 1-(3-chloro-4-methoxy-phenyl)-r-3-{c-4-[4-(2-isopropoxy-phenyl)-piperazin-1-yl]-cyclohexyl}-urea] | 493 nM | 73 nM | 28 nM
3 | COc1ccc(C)cc1NC(=O)N[C@H]1CC[C@@H](N2CCN(c3ccccc3OC(C)C)CC2)CC1 [Cpd 33, r-1-{c-4-[4-(2-isopropoxy-phenyl)-piperazin-1-yl]-cyclohexyl}-3-(2-methoxy-5-methyl-phenyl)-urea] | 168 nM | 37 nM | 6.5 nM
4 | CC(C)Oc1ccccc1N1CCN([C@H]2CC[C@H](NC(=O)Nc3c(Cl)cc(Cl)cc3Cl)CC2)CC1 [Cpd 16, r-1-{t-4-[4-(2-isopropoxy-phenyl)-piperazin-1-yl]-cyclohexyl}-3-(2,4,6-trichloro-phenyl)-urea] | 112 nM | 6.4 nM | 3.6 nM
5 | COc1ccc(Cl)cc1NC(=O)N[C@H]1CC[C@H](N2CCN(c3ccccc3OC(C)C)CC2)CC1 [Cpd 19, 1-(5-chloro-2-methoxy-phenyl)-r-3-{t-4-[4-(2-isopropoxy-phenyl)-piperazin-1-yl]-cyclohexyl}-urea] | – | 34 nM | 2.7 nM
6 | CC(C)Oc1ccccc1N1CCN([C@H]2CC[C@H](NC(=O)Nc3cccc(Cl)c3)CC2)CC1 [Cpd 12, 1-(3-chloro-phenyl)-r-3-{t-4-[4-(2-isopropoxy-phenyl)-piperazin-1-yl]-cyclohexyl}-urea] | – | 5.1 nM | –
7 | CC(C)Oc1ccccc1N1CCN([C@H]2CC[C@@H](NC(=O)Nc3ccc(F)c(F)c3)CC2)CC1 [Cpd 7, 1-(3,4-difluoro-phenyl)-r-3-{c-4-[4-(2-isopropoxy-phenyl)-piperazin-1-yl]-cyclohexyl}-urea] | 963 nM | 50.6 nM | –
8 | CC(C)Oc1ccccc1N1CCN([C@H]2CC[C@@H](NC(=O)Nc3c(Cl)cccc3Cl)CC2)CC1 [Cpd 13, 1-(2,6-dichloro-phenyl)-r-3-{c-4-[4-(2-isopropoxy-phenyl)-piperazin-1-yl]-cyclohexyl}-urea] | – | 33.4 nM | –
9 | CC(C)Oc1ccccc1N1CCN([C@H]2CC[C@@H](NC(=O)Nc3cc(F)ccc3F)CC2)CC1 [Cpd 24, 1-(2,5-difluoro-phenyl)-r-3-{c-4-[4-(2-isopropoxy-phenyl)-piperazin-1-yl]-cyclohexyl}-urea] | 259 nM | 25.8 nM | 52.5 nM
10 | CC(C)Oc1ccccc1N1CCN([C@H]2CC[C@H](NC(=O)Nc3ccccc3Cl)CC2)CC1 [Cpd 10, 1-(2-chloro-phenyl)-r-3-{t-4-[4-(2-isopropoxy-phenyl)-piperazin-1-yl]-cyclohexyl}-urea] | 39 nM | 11.4 nM | 3 nM
11 | CC(C)Oc1ccccc1N1CCN([C@H]2CC[C@H](NC(=O)Nc3ccc(F)cc3F)CC2)CC1 [Cpd 23, 1-(2,4-difluoro-phenyl)-r-3-{t-4-[4-(2-isopropoxy-phenyl)-piperazin-1-yl]-cyclohexyl}-urea] | 76 nM | 3.1 nM | –
12 | CC(C)Oc1ccccc1N1CCN([C@H]2CC[C@H](NC(=O)Nc3c(Cl)cccc3Cl)CC2)CC1 [Cpd 14, 1-(2,6-dichloro-phenyl)-r-3-{t-4-[4-(2-isopropoxy-phenyl)-piperazin-1-yl]-cyclohexyl}-urea] | – | 6.2 nM | –
13 | CC(C)Oc1ccccc1N1CCN([C@H]2CC[C@@H](NC(=O)Nc3ccc(F)cc3F)CC2)CC1 [Cpd 22, 1-(2,4-difluoro-phenyl)-r-3-{c-4-[4-(2-isopropoxy-phenyl)-piperazin-1-yl]-cyclohexyl}-urea] | 475 nM | 14 nM | –
14 | COc1ccc(NC(=O)N[C@H]2CC[C@H](N3CCN(c4ccccc4OC(C)C)CC3)CC2)c(OC)c1 [Cpd 4, 1-(2,4-dimethoxy-phenyl)-r-3-{t-4-[4-(2-isopropoxy-phenyl)-piperazin-1-yl]-cyclohexyl}-urea] | – | 74 nM | 20 nM
15 | COc1ccc(Cl)cc1NC(=O)N[C@H]1CC[C@@H](N2CCN(c3ccccc3OC(C)C)CC2)CC1 [Cpd 18, 1-(5-chloro-2-methoxy-phenyl)-r-3-{c-4-[4-(2-isopropoxy-phenyl)-piperazin-1-yl]-cyclohexyl}-urea] | – | 101 nM | 64 nM
16 | CC(C)Oc1ccccc1N1CCN([C@H]2CC[C@@H](NC(=O)Nc3c(F)cccc3F)CC2)CC1 [Cpd 26, 1-(2,6-difluoro-phenyl)-r-3-{c-4-[4-(2-isopropoxy-phenyl)-piperazin-1-yl]-cyclohexyl}-urea] | 299 nM | 51.6 nM | –
17 | CC(C)Oc1ccccc1N1CCN([C@H]2CC[C@H](NC(=O)Nc3c(F)cccc3F)CC2)CC1 [Cpd 27, 1-(2,6-difluoro-phenyl)-r-3-{t-4-[4-(2-isopropoxy-phenyl)-piperazin-1-yl]-cyclohexyl}-urea] | 35.6 nM | 5.3 nM | –
18 | CC(C)Oc1ccccc1N1CCN([C@H]2CC[C@H](NC(=O)Nc3ccc(F)c(F)c3)CC2)CC1 [Cpd 8, 1-(3,4-difluoro-phenyl)-r-3-{t-4-[4-(2-isopropoxy-phenyl)-piperazin-1-yl]-cyclohexyl}-urea] | 74 nM | 3 nM | –
19 | COc1ccccc1NC(=O)N[C@H]1CC[C@@H](N2CCN(c3ccccc3OC(C)C)CC2)CC1 [Cpd 1, 1-{c-4-[4-(2-isopropoxy-phenyl)-piperazin-1-yl]-cyclohexyl}-r-3-(2-methoxy-phenyl)-urea] | 223 nM | 155 nM | –
20 | CC(C)Oc1ccccc1N1CCN([C@H]2CC[C@@H](NC(=O)Nc3cccc(Cl)c3)CC2)CC1 [Cpd 11, 1-(3-chloro-phenyl)-r-3-{c-4-[4-(2-isopropoxy-phenyl)-piperazin-1-yl]-cyclohexyl}-urea] | – | 22.2 nM | –
21 | COc1ccc(NC(=O)N[C@H]2CC[C@@H](N3CCN(c4ccccc4OC(C)C)CC3)CC2)c(OC)c1 [Cpd 3, 1-(2,4-dimethoxy-phenyl)-r-3-{c-4-[4-(2-isopropoxy-phenyl)-piperazin-1-yl]-cyclohexyl}-urea] | – | 110 nM | 92 nM
